According to patent US7700584B2 (Hangzhou Minsheng Pharmaceuticals Co., Ltd., priority 2004, dated 2010):
Counter-ions that a name gives are not always drawn.

Key:
[1] = tested on: SMMC-7721 human hepatic carcinoma; assay: In vitro inhibition rate to tumor cells (MTT), SMMC-7721; type: cell-based; conditions: 50 μg/ml
Method: (§1) (1) Single cell suspension was seeded into 96-well plates (×3) (the cells was diluted in the PRMI-1640 minimum medium to 3×10^4 cells/ml, […] diluted cells/well). […] The experiments were performed in quadruplicate.
(§2) (2) The medium was removed. Solutions of the anti-tumor agents (15 compounds) were prepared in a freshly prepared medium at the concentrations indicated in the following Table. […] of the solution was added into each well. Incubation was continued for 48 hours.
(§3) (3) […] of 2 mg/ml MTT was added into each well, and incubated for 4 hours.
(§4) (4) The medium was removed from the well. The microplates were swiftly turned down to throw-off the medium. […] DMSO was added into each well, and vortexed at room temperature for 10 minutes.
(§5) (5) OD value (λ=570 nm) was measured with an Enzyme-Linked Detector.
(§6) (6) The inhibition rates (IR) of cell growth were respectively calculated based on the following equation: IR(%)=[1−(average OD of the experimental group/average OD of the control group)]×100%

293 cells = assay: Cell status of 293 cells treated with sample alone (herpes virus screening); conditions: 200 μg/ml, 24 hrs
[2] = tested on: Bel-7402 human hepatic carcinoma; assay: In vitro inhibition rate to tumor cells (MTT), Bel-7402; type: cell-based; conditions: 50 μg/ml
Method: as §1, §2, §3, §4, §5, §6

[3] = tested on: A-549 human lung adenocarcinoma; assay: In vitro inhibition rate to tumor cells (MTT), A-549; type: cell-based; conditions: 50 μg/ml
Method: as §1, §2, §3, §4, §5, §6

[4] = tested on: Hela human cervical carcinoma; assay: In vitro inhibition rate to tumor cells (MTT), Hela; type: cell-based; conditions: 50 μg/ml
Method: as §1, §2, §3, §4, §5, §6

[5] = tested on: U-937 human histocytic lymphoma; assay: In vitro inhibition rate to tumor cells (MTT), U-937; type: cell-based; conditions: 50 μg/ml
Method: as §1, §2, §3, §4, §5, §6

[6] = tested on: HL-60 human promyelocytic leukemia; assay: In vitro inhibition rate to tumor cells (MTT), HL-60; type: cell-based; conditions: 50 μg/ml
Method: as §1, §2, §3, §4, §5, §6

[7] = tested on: MCF-7 human mammary adenocarcinoma; assay: In vitro inhibition rate to tumor cells (MTT), MCF-7; type: cell-based; conditions: 50 μg/ml
Method: as §1, §2, §3, §4, §5, §6

[8] = tested on: LLC mouse Lewis lung carcinoma; assay: In vitro inhibition rate to tumor cells (MTT), LLC; type: cell-based; conditions: 50 μg/ml
Method: as §1, §2, §3, §4, §5, §6

[9] = tested on: mouse grafted sarcoma S-180; assay: Activity against mouse grafted sarcoma S-180; type: in vivo, Kunming mice; conditions: 1 mg/kg i.v., 6 doses; for Tumor weight: X ± SD, n = 10
Method: (1) Experimental animals: Kunming mice weighting 18-22 g;
(2) 100 mg/ml solutions of the 3 compounds were prepared, respectively, in water for injection (1% surface surfactant was added into the solution of Compound 6). 5-FU and camptothecine, 30 mg/kg and 1 mg/kg, respectively, were used as positive controls;
3. Route of Administration: Intravenous Injection.
(§7) The experiments were performed according to “Guideline for New Drugs (Western medicines) in Pre-clinical Stages” issued by Bureau of Drug Policy & Administration of the People's Republic of China, and the relevant methods in “Methodology of Pharmaceutical Experiments”, Xu Shuyun et al. ed. 120 male Kunming mice weighting […] were allowed to grow 3 days. No abnormality was observed. The mice were routinely inoculated in oxter with mouse sarcoma S-180, and weighted 4 hrs. after inoculation. The mice were randomly divided into 12 groups, 10 mice/group. Group 1 was given 0.3 ml of physiological saline as negative control; Group 2 was given 5-FU as positive control, 0.6 mg/mouse; Group 3 was given hydroxycamptothecine as positive control, 0.02 mg/mouse. Groups 4, 5 and 6 were injected with 10% Compound 6, 0.4 ml/mouse, 0.2 ml/mouse, and 0.1 ml/mouse, respectively. Groups 7, 8 and 9 were injected with 10% Compound 8, 0.4 ml/mouse, 0.2 ml/mouse, and 0.1 ml/mouse, respectively. Groups 10, 11, and 12 were injected with 10% Compound 20, 0.4 ml/mouse, 0.2 ml/mouse, and 0.1 ml/mouse, respectively. The tested compounds were administered on the next day after inoculation, once a day on alternate days, 6 doses totally administered. On the next day after the end dose, the mice were weighed and sacrificed. After the tumor was excised, body weight and tumor weight were recorded. The tumor inhibition rate was calculated based on the following formula: [(average tumor weight of the control groups−average tumor weight of the experimental groups)/average tumor weight of the control groups]×100%. The data was processed statistically. The above experiments were repeated three times.

mouse lung cancer Lewis = assay: Activity against mouse grafted lung cancer Lewis; type: in vivo, Kunming mice; conditions: Lewis, 1 mg/kg; for Tumor weight: X ± SD, n = 10
Method: as §7
(§8) The experiments were identical with the experiments for activity against mouse grafted sarcoma S-180, except the following:
(1) the tumor cell line inoculated was mouse lung cancer Lewis;
(2) Compound 6, Compound 8 and Compound 21 were not tested for their activity;
(3) the mice were divided into six groups.

[10] = tested on: mouse grafted uterine cervix cancer U14; assay: Activity against mouse grafted uterine cervix cancer U14; type: in vivo, Kunming mice; conditions: 1 mg/kg; for Tumor weight: X ± SD, n = 10
Method: as §7, §8
(1) the tumor cell line inoculated was mouse grafted uterine cervix cancer U14;
(2) all the mice were female.

[11] = tested on: mouse grafted liver cancer H22; assay: Activity against mouse grafted liver cancer H22; type: in vivo, Kunming mice; conditions: for Tumor weight: X ± SD, n = 10
Method: as §7
The experiments were identical with the experiments for activity against mouse grafted sarcoma S-180, except that the cell line inoculated was liver cancer H22. The experiments were repeated three times.

HepG2 cells = assay: Cell status of HepG2 cells treated with sample (HBV screening); type: cell-based; conditions: 200 μg/ml, HepG2, four days after infection
Hepatitis B virus (HBV) = type: cell-based
[12] = H22, first experiment, 1 mg/kg i.v., 6 doses
[13] = H22, second experiment, 1 mg/kg
[14] = Table 2 (repeated screening), hydrochloride

In the case of `C=C1CC2(OC(=O)c3ccccc3)OC3(CC2C(C)C)C(C)CCC13` (stereo not shown) [Compound 4, Curcumol benzoate], the “inhibition rate, Results (%) SMMC-7721” value ([1]; Table 1) is reported as 5.30%, the “inhibition rate, Results (%) SMMC-7721” value ([1]; Table 2 (repeated screening)) is reported as 1.96% and the “Cytopathy and cell status, Sample” value (293 cells) is reported as “Good”. The “inhibition rate, Results (%) Bel-7402” value ([2]; Table 1) was 43.21%, the “inhibition rate, Results (%) Bel-7402” value ([2]; Table 2 (repeated screening)) was 43.02% and the “inhibition rate, Results (%) A-549” value ([3]; Table 1) was 10.51%. The “inhibition rate, Results (%) A-549” value ([3]; Table 2 (repeated screening)) was 14.03%, the “inhibition rate, Results (%) Hela” value ([4]; Table 1) was 73.22% and the “inhibition rate, Results (%) Hela” value ([4]; Table 2 (repeated screening)) was 70.12%. The “inhibition rate, Results (%) U-937” value ([5]; Table 1) was 52.23%, the “inhibition rate, Results (%) U-937” value ([5]; Table 2 (repeated screening)) was 51.00% and the “inhibition rate, Results (%) HL-60” value ([6]; Table 1) was 42.1%. For the same compound, the “inhibition rate, Results (%) HL-60” value ([6]; Table 2 (repeated screening)) was 40.01%, the “inhibition rate, Results (%) MCF-7” value ([7]; Table 1) was 49.23% and the “inhibition rate, Results (%) MCF-7” value ([7]; Table 2 (repeated screening)) was 50.09%. For the same compound, the “inhibition rate, Results (%) LLC” value ([8]; Table 1) was 1.01% and the “inhibition rate, Results (%) LLC” value ([8]; Table 2 (repeated screening)) was 0.23%.

“hydroxycamptothecine [reference compound]” was tested, and the “Average weight (g)-after administration” value ([9]; S-180, first experiment) was 20.8 g, the “Inhibition rate (%)” value ([9]; S-180, first experiment) was 65.2% and the “Tumor weight” value ([9]; S-180, first experiment) was 0.87 ± 0.28 g. For the same compound, the “Average weight(g)-after administration” value ([9]; S-180, second experiment) was 20.8 g, the “Inhibition rate (%)” value ([9]; S-180, second experiment) was 64.6% and the “Tumor weight” value ([9]; S-180, second experiment) was 0.92 ± 0.38 g. For the same compound, the “Average weight (g)-after administration” value (mouse lung cancer Lewis; second experiment) was 21.0 g, the “Inhibition rate (%)” value (mouse lung cancer Lewis; second experiment) was 50.2% and the “Tumor weight” value (mouse lung cancer Lewis; second experiment) was 1.20 ± 0.28 g. For the same compound, the “Average weight (g)-after administration” value (mouse lung cancer Lewis; third experiment) was 21.5 g, the “Inhibition rate (%)” value (mouse lung cancer Lewis; third experiment) was 51.9% and the “Tumor weight” value (mouse lung cancer Lewis; third experiment) was 1.30 ± 0.28 g. For the same compound, the “Average weight(g)-after administration” value ([10]; U14, first experiment) was 22.2 g, the “Inhibition rate (%)” value ([10]; U14, first experiment) was 45.8% and the “Tumor weight” value ([10]; U14, first experiment) was 1.90 ± 0.28 g. The “Average weight(g)-after administration” value ([10]; U14, second experiment) was 22.3 g, the “Inhibition rate (%)” value ([10]; U14, second experiment) was 46.5% and the “Tumor weight” value ([10]; U14, second experiment) was 1.82 ± 0.28 g. The “Average weight (g)-after administration” value ([10]; U14, third experiment) was 21.3 g, the “Inhibition rate (%)” value ([10]; U14, third experiment) was 45.6% and the “Tumor weight” value ([10]; U14, third experiment) was 1.96 ± 0.28 g. For the same compound, the “Average weight(g)-after administration” value [11, 12] was 20.5 g, the “Inhibition rate (%)” value [11, 12] was 63.9% and the “Tumor weight” value [11, 12] was 1.12 ± 0.28 g. For the same compound, the “Average weight(g)-after administration” value [11, 13] was 20.2 g, the “Inhibition rate (%)” value [11, 13] was 66.9% and the “Tumor weight” value [11, 13] was 1.00 ± 0.28 g. For the same compound, the “Average weight (g)-after administration” value ([11]; H22, third experiment, 1 mg/kg) was 22.2 g, the “Inhibition rate (%)” value ([11]; H22, third experiment, 1 mg/kg) was 65.3% and the “Tumor weight” value ([11]; H22, third experiment, 1 mg/kg) was 1.05 ± 0.28 g.

For `CC(C)C1CC23OC1(O)C/C(=C\NC(C)(C)C)C2CCC3C` (stereo not shown) [Compound 16, Curcumol t-butyl amine hydrochloride], the “inhibition rate, Results (%) SMMC-7721” value ([1]; Table 1) was −2.50%, the “inhibition rate, Results (%) SMMC-7721” value [1, 14] was 2.63% and the “inhibition rate, Results (%) Bel-7402” value ([2]; Table 1, hydrochloride) was 1.23%. The “inhibition rate, Results (%) Bel-7402” value [2, 14] was 8.99%, the “inhibition rate, Results (%) A-549” value ([3]; Table 1, hydrochloride) was 6.01% and the “inhibition rate, Results (%) A-549” value [3, 14] was 10.19%. The Cell status (HepG2 cells) was “Normal”, the “inhibition rate, Results (%) Hela” value ([4]; Table 1, hydrochloride) was 68.99% and the “inhibition rate, Results (%) Hela” value [4, 14] was 70.32%. The “inhibition rate, Results (%) U-937” value ([5]; Table 1, hydrochloride) was 82.56%, the “inhibition rate, Results (%) U-937” value [5, 14] was 80.12% and the “(Value of the positive control - Measured Value) Value of the positive control × 100%” value (Hepatitis B virus (HBV); 200 μg/ml, decrease of HBeAg relative to positive control) was 73.81%. The “OD450 of HBeAg” value (Hepatitis B virus (HBV); 200 μg/ml, supernatant four days after infection, positive control 1.917, negative 0.057) was 0.502, the “activity against HBV (in words)” value (Hepatitis B virus (HBV); primary screening, HBV e antigen, HepG2, 13 samples) was “had the activity against HBV” and the “inhibition rate, Results (%) HL-60” value ([6]; Table 1, hydrochloride) was 2.31%. For the same compound, the “inhibition rate, Results (%) HL-60” value [6, 14] was 15.00%, the “inhibition rate, Results (%) MCF-7” value ([7]; Table 1, hydrochloride) was 54.89% and the “inhibition rate, Results (%) MCF-7” value [7, 14] was 50.32%. For the same compound, the “inhibition rate, Results (%) LLC” value ([8]; Table 1, hydrochloride) was 1.13% and the “inhibition rate, Results (%) LLC” value [8, 14] was 0.22%.
